Marks after values point to notes of the source that are not given here.
Legend:
Format in all cases: in vivo, mice (C57BL/6)
[1] = system: diabetic nephrosis animal models; assay: Blood indoxyl sulfate by LC MS/MS; conditions: after observation period, fasted
Description: (§1) STZ (Sigma-aldrich, S0130, 40 mg/kg b.w., in 0.1 M citrate buffer pH 4.5) was intraperitoneally administered to 9-week-old male mice (C57BL/6) once/1 day for 5 days to perform a first disease induction. After 7 weeks of the first induction, a second induction was performed using the same method as the first induction. For 5 days of an STZ administration period for the first induction, 10% sucrose was administered as drinking water. In addition, after 14 days of the second administration, blood glucose levels were confirmed to confirm the induction rate, and the induced animals were separated into groups. Experimental substances (R)-4-{(R)-1-[7-(3,4,5-trimethoxy-phenyl)-[1,6] naphthyridin-5-yloxy]-ethyl}pyrrolidin-2-one (BI-1002494) and cromolyn (OC-101) were administered orally into the stomach at 10 mL/kg using an administration syringe (sonde) before 16:00 daily for 12 weeks at a frequency of 7 days/week at doses shown in Table 1 below, and dexamethasone was orally administered as a positive control substance.
(§2) After the observation period for mice of each group in Example 1 was terminated, all surviving animals were fasted in the same manner as when measuring blood glucose levels, and then anesthetized by inhaling isoflurane, and blood was collected from the abdominal vena cava through laparotomy. After the blood collection was completed, the veins and arteries were cut under anesthesia and exsanguinated. The collected blood was left at room temperature for 30 minutes or more and then centrifuged at 3,000 rpm for 20 minutes. Thereafter, glucose, Blood urea nitrogen (BUN), and creatinine were analyzed using an automated blood biochemistry analyzer (Hitachi 3100, Hitachi Co. Ltd., Japan). Indoxyl sulfate (a substance that was mainly produced in the intestines to cause renal injury, and a substance that caused end-stage renal failure by advancing renal function damage in patients with renal failure during hemodialysis) was analyzed using LC MS/MS. In addition, blood insulin was analyzed according to a method represented by a commercial Mouse Insulin ELISA KIT (#AKRIN-011T, Sibayagi Co. Ltd., Japan).

[2] = system: diabetic nephrosis animal models; assay: Changes in blood glucose levels (tail vein, blood glucose level meter)
Description: as §1
Before disease induction, excluding week 9 of administration of experimental substances to mice in each group of Example 1 above, after 2 weeks after the first induction (based on a first administration date), and after 6 weeks and 2 weeks of the second induction (based on the first administration date), blood was collected from the tail vein and blood glucose levels were measured using a blood glucose level meter (Accu-Check, Roche), and fasting was performed for 4 hours from 9:30 a.m. to 1:30.

[3] = Drinking water intake of mice in diabetic nephrosis model; set-up: unit not given here
Description: as §1

[4] = Body weights of mice in diabetic nephrosis model
Description: as §1

[5] = system: diabetic nephrosis animal models; assay: Blood insulin (Mouse Insulin ELISA KIT) and HOMA-IR; conditions: for HOMA-IR, Mean / Insulin, Mean: after observation period, fasted
Description: as §1, §2

[6] = after induction of diabetic renal diseases

COc1cc(-c2cc3ncccc3c(O[C@H](C)[C@H]3CNC(=O)C3)n2)cc(OC)c1OC [BI-1002494, (R)-4-{(R)-1-[7-(3,4,5-trimethoxy-phenyl)-[1,6]naphthyridin-5-yloxy]-ethyl}pyrrolidin-2-one]
Indoxyl sulfate, Mean ([1]; 12.5 mg/kg/day oral): 2.2 µg/mL
Indoxyl sulfate, Mean ([1]; 25 mg/kg/day oral): 2.2 µg/mL
Indoxyl sulfate, Mean ([1]; 50 mg/kg/day oral): 1.9 µg/mL
Blood glucose level, Mean ([2]; 12.5 mg/kg/day oral, week 0, 4 h fasting, in mg/dL (unit assumed)): 291.1
Blood glucose level, Mean ([2]; 12.5 mg/kg/day oral, week 2, 4 h fasting, in mg/dL (unit assumed)): 319.5
Blood glucose level, Mean ([2]; 12.5 mg/kg/day oral, week 4, 4 h fasting): 225.1^#
Blood glucose level, Mean ([2]; 12.5 mg/kg/day oral, week 6, 4 h fasting): 261.8^#
Blood glucose level, Mean ([2]; 12.5 mg/kg/day oral, week 8, 4 h fasting): 270.4^#
Blood glucose level, Mean ([2]; 12.5 mg/kg/day oral, week 10, 4 h fasting): 280.8^#
Blood glucose level, Mean ([2]; 25 mg/kg/day oral, week 0, 4 h fasting, in mg/dL (unit assumed)): 301.2
Blood glucose level, Mean ([2]; 25 mg/kg/day oral, week 2, 4 h fasting, in mg/dL (unit assumed)): 310.1
Blood glucose level, Mean ([2]; 25 mg/kg/day oral, week 4, 4 h fasting): 218.6^#
Blood glucose level, Mean ([2]; 25 mg/kg/day oral, week 6, 4 h fasting): 257.8^#
Blood glucose level, Mean ([2]; 25 mg/kg/day oral, week 8, 4 h fasting): 279.1^#
Blood glucose level, Mean ([2]; 25 mg/kg/day oral, week 10, 4 h fasting): 255.9^#
Blood glucose level, Mean ([2]; 50 mg/kg/day oral, week 0, 4 h fasting, in mg/dL (unit assumed)): 303.7
Blood glucose level, Mean ([2]; 50 mg/kg/day oral, week 2, 4 h fasting, in mg/dL (unit assumed)): 264.5
Blood glucose level, Mean ([2]; 50 mg/kg/day oral, week 4, 4 h fasting): 201.0^#
Blood glucose level, Mean ([2]; 50 mg/kg/day oral, week 6, 4 h fasting): 199.6^#
Blood glucose level, Mean ([2]; 50 mg/kg/day oral, week 8, 4 h fasting): 200.9^#
Blood glucose level, Mean ([2]; 50 mg/kg/day oral, week 10, 4 h fasting): 187.3^#
Blood glucose levels compared to those of the positive control group ([2]; administered group (12.5, 25, 50 mg/kg)): decreased significantly
Blood glucose levels, summary [2, 6]: decreased in a dose-dependent manner
Drinking water intake, Mean ([3]; 12.5 mg/kg/day oral, week 0): 7.80
Drinking water intake, Mean ([3]; 12.5 mg/kg/day oral, week 1): 7.91
Drinking water intake, Mean ([3]; 12.5 mg/kg/day oral, week 2): 7.41
Drinking water intake, Mean ([3]; 12.5 mg/kg/day oral, week 3): 7.39
Drinking water intake, Mean ([3]; 12.5 mg/kg/day oral, week 4): 7.38
Drinking water intake, Mean ([3]; 12.5 mg/kg/day oral, week 5): 7.16
Drinking water intake, Mean ([3]; 12.5 mg/kg/day oral, week 6): 7.34
Drinking water intake, Mean ([3]; 12.5 mg/kg/day oral, week 7): 7.24
Drinking water intake, Mean ([3]; 12.5 mg/kg/day oral, week 8): 6.99
Drinking water intake, Mean ([3]; 12.5 mg/kg/day oral, week 9): 7.40
Drinking water intake, Mean ([3]; 12.5 mg/kg/day oral, week 10): 7.46
Drinking water intake, Mean ([3]; 25 mg/kg/day oral, week 0): 7.07
Drinking water intake, Mean ([3]; 25 mg/kg/day oral, week 1): 7.62
Drinking water intake, Mean ([3]; 25 mg/kg/day oral, week 2): 7.86
Drinking water intake, Mean ([3]; 25 mg/kg/day oral, week 3): 7.38
Drinking water intake, Mean ([3]; 25 mg/kg/day oral, week 4): 6.73
Drinking water intake, Mean ([3]; 25 mg/kg/day oral, week 5): 7.19
Drinking water intake, Mean ([3]; 25 mg/kg/day oral, week 6): 7.34
Drinking water intake, Mean ([3]; 25 mg/kg/day oral, week 7): 7.69
Drinking water intake, Mean ([3]; 25 mg/kg/day oral, week 8): 7.43
Drinking water intake, Mean ([3]; 25 mg/kg/day oral, week 9): 7.54
Drinking water intake, Mean ([3]; 25 mg/kg/day oral, week 10): 7.15
Drinking water intake, Mean ([3]; 50 mg/kg/day oral, week 0): 7.27
Drinking water intake, Mean ([3]; 50 mg/kg/day oral, week 1): 7.04
Drinking water intake, Mean ([3]; 50 mg/kg/day oral, week 2): 6.07
Drinking water intake, Mean ([3]; 50 mg/kg/day oral, week 3): 6.96
Drinking water intake, Mean ([3]; 50 mg/kg/day oral, week 4): 7.13
Drinking water intake, Mean ([3]; 50 mg/kg/day oral, week 5): 6.48
Drinking water intake, Mean ([3]; 50 mg/kg/day oral, week 6): 6.93
Drinking water intake, Mean ([3]; 50 mg/kg/day oral, week 7): 6.39
Drinking water intake, Mean ([3]; 50 mg/kg/day oral, week 8): 6.91
Drinking water intake, Mean ([3]; 50 mg/kg/day oral, week 9): 6.61
Drinking water intake, Mean ([3]; 50 mg/kg/day oral, week 10): 6.22
Body weight compared to the disease control group ([4]; 12.5 mg/kg administered group, after week 5 of administration): statistically significantly increased
Body weight, Mean ([4]; 12.5 mg/kg/day oral, week 0): 24 g
Body weight, Mean ([4]; 12.5 mg/kg/day oral, week 1): 23.7 g
Body weight, Mean ([4]; 12.5 mg/kg/day oral, week 2): 23.8 g
Body weight, Mean ([4]; 12.5 mg/kg/day oral, week 3): 24.1 g
Body weight, Mean ([4]; 12.5 mg/kg/day oral, week 4): 24.3 g
Body weight, Mean ([4]; 12.5 mg/kg/day oral, week 5): 24.2^#
Body weight, Mean ([4]; 12.5 mg/kg/day oral, week 6): 24.4^#
Body weight, Mean ([4]; 12.5 mg/kg/day oral, week 7): 24.3^#
Body weight, Mean ([4]; 12.5 mg/kg/day oral, week 8): 24.2^#
Body weight, Mean ([4]; 12.5 mg/kg/day oral, week 10): 23.8^#
Body weight compared to the disease control group ([4]; 25 mg/kg administered group, after week 8): statistically significantly increased
Body weight, Mean ([4]; 25 mg/kg/day oral, week 0): 23.8 g
Body weight, Mean ([4]; 25 mg/kg/day oral, week 1): 23.5 g
Body weight, Mean ([4]; 25 mg/kg/day oral, week 2): 23.7 g
Body weight, Mean ([4]; 25 mg/kg/day oral, week 3): 23.9 g
Body weight, Mean ([4]; 25 mg/kg/day oral, week 4): 23.9 g
Body weight, Mean ([4]; 25 mg/kg/day oral, week 5): 24 g
Body weight, Mean ([4]; 25 mg/kg/day oral, week 6): 23.9 g
Body weight, Mean ([4]; 25 mg/kg/day oral, week 7): 24 g
Body weight, Mean ([4]; 25 mg/kg/day oral, week 8): 24.0^#
Body weight, Mean ([4]; 25 mg/kg/day oral, week 10): 23.7^#
Body weight compared to the disease control group ([4]; 50 mg/kg administered group, after week 8): statistically significantly increased
Body weight, Mean ([4]; 50 mg/kg/day oral, week 0): 23.9 g
Body weight, Mean ([4]; 50 mg/kg/day oral, week 1): 23.6 g
Body weight, Mean ([4]; 50 mg/kg/day oral, week 2): 23.8 g
Body weight, Mean ([4]; 50 mg/kg/day oral, week 3): 23.8 g
Body weight, Mean ([4]; 50 mg/kg/day oral, week 4): 23.8 g
Body weight, Mean ([4]; 50 mg/kg/day oral, week 5): 23.9 g
Body weight, Mean ([4]; 50 mg/kg/day oral, week 6): 23.9 g
Body weight, Mean ([4]; 50 mg/kg/day oral, week 7): 24 g
Body weight, Mean ([4]; 50 mg/kg/day oral, week 8): 23.9^#
Body weight, Mean ([4]; 50 mg/kg/day oral, week 10): 23.7^#
HOMA-IR, Mean ([5]; 12.5 mg/kg/day oral): 12.4
Insulin, Mean ([5]; 12.5 mg/kg/day oral): 0.7 ng/mL
HOMA-IR, Mean ([5]; 25 mg/kg/day oral): 8.7^#
Insulin, Mean ([5]; 25 mg/kg/day oral): 0.5^# ng/ml
HOMA-IR, Mean ([5]; 50 mg/kg/day oral): 6.9^#
Insulin, Mean ([5]; 50 mg/kg/day oral): 0.5 ng/mL
HOMA-IR compared with that of the disease control group ([5]; 25 and 50 mg/kg administered groups): statistically significantly reduced
Insulin resistance (HOMA-IR), summary [5, 6]: decreased in a dose-dependent manner

Source: patent US20240197695A1, “COMPOUND FOR PREVENTION OR TREATMENT OF KIDNEY DISEASE” (ONCOCROSS CO.,LTD, priority 2021, published 2024)
